pEC50: −log10 of the molar value.
Legend:
human SSTR4 = human SSTR4 (Homo sapiens, UniProt P31391); assay: Evaluation of agonist activities using human SSTR4-stably expressing cells (aequorin luminescence); type: cell-based; design: expressed in transfected cells; host or cells: HEK293; conditions: for SSTR4 agonist activity compared with other compounds: Tables 25 to 27; for pEC50: luminescence signal, 1 μmol/L somatostatin taken as 100%
Procedure: Evaluation of Agonist Activities Using Cells that stably expressing human-derived SSTR4 (human SSTR4-stably expressing cells)
(1) Human SSTR4-Stably Expressing Cells
Human SSTR4-stably expressing cells were prepared, and cultured. Specifically, HEK293 cells, human kidney-derived cells, were used as host cells. By introducing pcDNA3.1 (cat. No. V79020, invitrogen, Carlsbad, Calif., USA) to which human SSTR gene was inserted into HEK293 cells, human SSTR4-stably expressing cell line was obtained. For selection, G418 (cat. No. 16513-84, Nacalai tesque, Japan) was used.
As the culture medium, D-MEM medium (cat. No. 11995, GIBCO, USA), containing 10% FBS and 200 μg/mL G418, was used, the culture was performed in a 225 cm^2 flask (cat. No. 11-006-010, Iwaki, Japan).
At about 80% confluence, the cells were harvested by treating with 20-fold diluted 0.25% Trypsin-EDTA (cat. No. 35554-64, Nacalai, tesque, Japan). The harvested cells were prepared at a reaction medium composed of Hanks Buffer (cat. No. 14065-056, invitrogen, Carlsbad, Calif., USA)/20 mM Hepes (cat. No. 15630-080, invitrogen, Carlsbad, Calif., USA), and 0.1% BSA (cat. No. A7906, Sigma Aldrich, USA) to 70000 cells/mL. Gα16 and apoaequorin were transiently introduced to the harvested cells, and the cells were seeded to a 384 well plate (cat. No. 781090, Greiner, Germany) at about 2000 cells/30 μL/well. On the next day of cell seeding, Coelenterazine H (cat. No. S2011, Promega, USA) was added to each well (10 μL/well) to make a final concentration of 0.5 μmol/L, and the plate was centrifuged. Then, the plate was left at room temperature for 4 hours in shaded state.
(2) Preparation of Test Compounds
DMSO solution of each test compound having 1000-fold larger concentration than the final concentration was prepared. The DMSO solutions were made to have 10-fold concentration than the final concentration with Hanks/20 mmol/L Hepes/0.1% BSA.
(3) Evaluation of Agonist Activity
For detection of luminescence signal due to SSTR4-stimulation, FDSS7000 (manufactured by Hamamatsu Photonics K.K.) was used. To plates having cells and the luminescence substrate, solutions of test compounds were added, then each luminescence signal was measured for 90 seconds, and each relative luminescence unit (RLU) was calculated. Based on luminescence signal from the wells to which a 1 μmol/L somatostatin solution was added taken as 100%, agonist activity of each test compound was evaluated.

[1] = Pharmacokinetic test (PK test) using rodents; type: in vivo; conditions: mouse, brain and plasma; mice, 10 mg/kg oral, an hour and 4 hours after; read-out: brain-plasma concentration ratio
Procedure: Moreover, it was verified, as the results of a pharmacokinetic test (PK test) using rodents, that the compound of the present invention has more excellent in vivo kinetics, central nervous system penetration, and exposure level, compared with the pyrrolidine derivative described in Patent Literature 1. In particular, the following Test Example 8 was performed.
Pharmacokinetic Test (PK Test) Using Rodents
Compounds of the present invention were orally administered to mice at a dose of 10 mg/kg, and an hour and 4 hours after, the plasma and the brain were collected, concentrations of the administered compounds were measured by LC/MS/MS. As well, protein binding rates in the plasma and the brain were measured with equilibrium dialysis method, and concentrations of non-binding compounds were calculated. The brain-plasma concentration ratio was about 5 in any cases of an hour and 4 hours after for compounds obtained in Examples 7, 14, 15, 16, 17, 18, 20, 21, 27, 40, and 50, which indicated excellent central nervous system penetration.

Slc:ddY mice [2] = assay: Mouse novel object recognition test (mORT); type: in vivo; conditions: 3 mg/kg (oral), administered before the first trial
Procedure: Evaluation of cognitive function using mouse novel object recognition test (hereinafter, may be called “mORT”)
In the mORT using Slc:ddY mice (male, Japan SLC, Inc.) with body weight of 25-45 g or 35-40 g, memory deterioration to familiar subject depending on the interval time between the first trial (training) and the second trial (test) is observed. If the second trial is performed 24 hours after performing the first trial, significant forgetting is observed. […] […] (discrimination index as indexes for cognitive function are shown: 0.5% MC receiving group, 0.054±0.026; 3 mg/kg receiving group, 0.245±0.066.)

Slc:ddY mice [3] = assay: Mouse Y-shaped maze test, scopolamine-induced memory impairment; type: in vivo; conditions: for spontaneous alternations: Scopolamine HBr 0.6 mg/kg subcutaneous
Procedure: Evaluation of amelioration in cognitive impairment using mouse Y-shaped maze test (hereinafter, may be called “Y-maze test”)
In the Y-maze test using Slc:ddY mice (male, Japan SLC, Inc.) with body weight of 25-35 g or 27-30 g, when 0.6 mg/kg of Scopolamine HBr (cat. No. S0929, Sigma Aldrich, USA) is subcutaneously administered to mice, memory impairment is caused, and reducing in spontaneous alternation is observed. Accordingly, mice were pre-treated by orally receiving compounds involved with the present invention, and ameliorating action in memory impairment was evaluated. […] (hereinafter, spontaneous alternations in each group in Example 21 are shown: 0.5% MC receiving group, 71.2±3.5; Scopolamine receiving group, 47.5±2.6; 1 mg/kg receiving group, 60.7±2.6; 3 mg/kg receiving group, 64.6±2.2.)

human SSTR4, sequence (P31391 whole entry): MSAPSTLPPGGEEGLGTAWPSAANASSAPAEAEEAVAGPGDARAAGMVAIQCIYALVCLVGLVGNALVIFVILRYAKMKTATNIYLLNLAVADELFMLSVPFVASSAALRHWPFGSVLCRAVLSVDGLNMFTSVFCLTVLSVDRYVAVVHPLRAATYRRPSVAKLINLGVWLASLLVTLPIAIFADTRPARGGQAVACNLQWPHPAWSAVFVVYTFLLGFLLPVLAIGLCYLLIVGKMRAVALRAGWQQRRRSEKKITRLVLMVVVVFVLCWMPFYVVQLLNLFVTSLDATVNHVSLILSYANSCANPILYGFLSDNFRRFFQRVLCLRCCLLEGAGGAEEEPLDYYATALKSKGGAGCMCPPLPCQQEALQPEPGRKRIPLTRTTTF

For CN1CCCC(C(=O)NC(C)(C)c2cccc(Cl)c2Cl)C1 (centres unmarked) [Example 16], the “SSTR4 agonist activity compared with other compounds” value (human SSTR4) was “stronger SSTR4 agonist activity”, the pEC50 (human SSTR4) was 8.64 and the Kp [1] was roughly 5.
Cc1c(Cl)cccc1C(C)(C)NC(=O)C1CCCN(C)C1 (centres unmarked) [Example 14] showed a pEC50 (human SSTR4) of 8.24 and a Kp [1] of roughly 5.
With CN1CCC[C@H](C(=O)NC(C)(C)c2cccc3ccccc23)C1 [Example 2, (3S)-1-methyl-N-[2-(naphthalene-1-yl)propane-2-yl]pyperidine-3-carboxamide] the memory enhancing action (Slc:ddY mice [2]) was “a tendency to enhance memory”, the “SSTR4 agonist activity compared with other compounds” value (human SSTR4) was “stronger SSTR4 agonist activity” and the spontaneous alternations (Slc:ddY mice [3]; 1 mg/kg oral) was 59.6±3.2. The spontaneous alternations (Slc:ddY mice [3]; 3 mg/kg oral) was 65.0±1.8 and the “ameliorating action in memory impairment” value (Slc:ddY mice [3]; at 1 or 3 mg/kg (oral)) was “significant ameliorating action in memory impairment”.
For CN1CCCC(C(=O)NC(C)(C)c2cc(Cl)ccc2Cl)C1 (centres unmarked) [Example 15], the “SSTR4 agonist activity compared with other compounds” value (human SSTR4) was “stronger SSTR4 agonist activity”, the pEC50 (human SSTR4) was 8.46 and the Kp [1] was roughly 5.
In the case of CN1CCC[C@H](C(=O)NC(C)(C)c2ccccc2Cl)C1 [Example 40, (3S)—N-[2-(2-chlorophenyl)propane-2-yl]-1-methylpiperidine-3-carboxamide], the pEC50 (human SSTR4) was 8.32 and the Kp [1] was roughly 5.
For CN1CCC[C@H](C(=O)NC(C)(C)c2ccc(Cl)cc2Cl)C1 [Example 20, (3S)—N-[2-(2,4-dichlorophenyl)propane-2-yl]-1-methylpiperidine-3-carboxamide], the “SSTR4 agonist activity compared with other compounds” value (human SSTR4) was “stronger SSTR4 agonist activity”, the pEC50 (human SSTR4) was 8.89 and the Kp [1] was roughly 5.
Compound Cc1ccc(Cl)cc1C(C)(C)NC(=O)[C@H]1CCCN(C)C1 [Example 50, (3S)—N-[2-(5-chloro-2-methylphenyl)propane-2-yl]-1-methylpiperidine-3-carboxamide] has a pEC50 (human SSTR4) of 8.37 and a Kp [1] of roughly 5.
In the case of CN1CCC[C@H](C(=O)NC(C)(C)c2cc(Cl)cc(Cl)c2)C1 [Example 18], the “SSTR4 agonist activity compared with other compounds” value (human SSTR4) was “stronger SSTR4 agonist activity”, the pEC50 (human SSTR4) was 8.70 and the Kp [1] was roughly 5.
In the case of Cc1c(Cl)cccc1C(C)(C)NC(=O)[C@H]1CCCN(C)C1 [Example 27, (3S)—N-[2-(3-chloro-2-methylphenyl)propane-2-yl]-1-methylpiperidine-3-carboxamide], the “SSTR4 agonist activity compared with other compounds” value (human SSTR4) was “stronger SSTR4 agonist activity”, the pEC50 (human SSTR4) was 8.68 and the Kp [1] was roughly 5.
For CN1CCCC(C(=O)NC(C)(C)c2ccc(Cl)cc2Cl)C1 (centres unmarked) [Example 17], the “SSTR4 agonist activity compared with other compounds” value (human SSTR4) was “stronger SSTR4 agonist activity”, the pEC50 (human SSTR4) was 8.64 and the Kp [1] was roughly 5.
For CN1CCCC(C(=O)NC(C)(C)c2cc(Cl)cc(Cl)c2)C1 (centres unmarked) [Example 7], the “SSTR4 agonist activity compared with other compounds” value (human SSTR4) was “stronger SSTR4 agonist activity”, the pEC50 (human SSTR4) was 8.37 and the Kp [1] was roughly 5.
